Measured values taken from ChEMBL document CHEMBL1140476 (Bioorg Med Chem, 2007).
The source made the active and inactive calls. The rule behind the calls is not given here.

Experiments:
Escherichia coli [1] = experiment: Inhibition of Escherichia coli DnaB helicase at 30 uM
[2] = Inhibition of Escherichia coli DnaB helicase in presence of 1 mM ATP
Escherichia coli [3] = experiment: Inhibition of Escherichia coli DnaB helicase at 6 uM
Escherichia coli [4] = experiment: Inhibition of Escherichia coli DnaB helicase at 60 uM
Escherichia coli [5] = experiment: Inhibition of Escherichia coli DnaB helicase-stimulated primer synthesis
Escherichia coli [6] = experiment: Inhibition of Escherichia coli DnaB helicase at 12 uM
[7] = Inhibition of Escherichia coli DnaB helicase in presence of 150 uM ATP

Question: With `O=c1c(O)c(-c2cc(O)c(O)c(O)c2)oc2cc(O)cc(O)c12` [MYRICETIN] as the compound, how does the Km (Escherichia coli [1]) read?
Answer: Its Km is 2.3 µM.

Question: What about the Vmax (Escherichia coli [1]) of the same compound?
Answer: Its Vmax is 0.61 µM/s.

Question: What about the IC50 [2] of the same compound?
Answer: Its IC50 is 11.3 µM.

Question: And the Km (Escherichia coli [3])?
Answer: The Km was 17 µM.

Question: And the Vmax (Escherichia coli [3])?
Answer: The Vmax was 1.64 µM/s.

Question: What about the Km (Escherichia coli [4]) of the same compound?
Answer: The Km was 4.5 µM.

Question: And the Vmax (Escherichia coli [4])?
Answer: Its Vmax is 0.35 µM/s.

Question: What about the Activity (Escherichia coli [5]) of the same compound?
Answer: Its Activity is “Active”.

Question: And the Km (Escherichia coli [6])?
Answer: The Km was 2.9 µM.

Question: And the Vmax (Escherichia coli [6])?
Answer: The Vmax was 1.06 µM/s.

Question: And the IC50 [7]?
Answer: Its IC50 is 10.2 µM.
